Positions of bridges follow the written chain, without caps; N, C: chain ends. Residues, ends and D or L forms follow the SMILES beside them.
Key:
human BACE1 (rhBACE1) [1] = biological target: T1, human BACE1 (rhBACE1) (Homo sapiens, UniProt P56817); assay: Caliper BACE1 activity assay (microfluidic capillary electrophoresis); type: biochemical; parameters: containing human BACE1 (extracellular domain); conditions: for IC50: 12 nM rhBACE1, 1 μM FAM-substrate, pH 4.4
Experimental: An MCE assay reactions can be carried out in a standard enzymatic reaction, initiated by the addition of substrate to enzyme and 4× compound, containing human BACE1 (extracellular domain), amyloid precursor protein beta secretase active site peptide (FAM-[…]-CONH2 (SEQ ID NO: 20)), 50 mM NaOAc pH 4.4 and 0.1% CHAPS. After incubation for 60 minutes at ambient temperature, the product and substrate in each reaction is separated using a 12-sipper microfluidic chip analyzed on an LC3000® (both, Caliper Life Sciences). The separation of product and substrate is optimized by choosing voltages and pressure using the manufacturer's optimization software. Substrate conversion is calculated from the electrophoregram using HTS Well Analyzer software (Caliper Life Sciences).
BACE1, BACE2 and Cathepsin D Activity Assay Using Microfluidic Capillary Electrophoresis (MCE).
BACE1, BACE2, and Cathepsin D reactions were carried out in a final volume of 20 μl per well in a 384-well microplate using a Caliper LabChip 3000 (Hopkinton, Mass.). A standard enzymatic reaction, initiated by the addition of 10 μ12× substrate to 5 μl of 4× enzyme and 5 μl of 4× peptide or small molecule inhibitor, contained 12 nM rhBACE1, 1 μM FAM-[…]-amide (SEQ ID NO: 20), 50 mM NaOAc, pH 4.4, 0.1% CHAPS. The same reaction conditions were used for rhBACE2 (5 nM) and Cathepsin D (6 nM) (Cat. No. 219394; EMD Biosciences, San Diego, Calif.). After incubation for 60 min at room temperature, the product and substrate in each reaction were separated using a 12-sipper microfluidic chip. Separation of product and substrate was optimized by choosing voltages and pressure using the Caliper Optimizer software. The separation buffer contained 100 mM HEPES, pH 7.2, 0.015% Brij-35, 0.1% Coating Reagent #3, 10 mM EDTA and 5% DMSO. The separation conditions used a downstream voltage of −500 V, an upstream voltage of −2250 V, and a screening pressure of −1.2 psi. The product and substrate fluorescence was excited at 488 nm and detected at 530 nm. Substrate conversion was calculated from the electrophoregram using the Caliper HTS Well Analyzer software.
Target sequence in this assay (P56817 46-457 limits assumed): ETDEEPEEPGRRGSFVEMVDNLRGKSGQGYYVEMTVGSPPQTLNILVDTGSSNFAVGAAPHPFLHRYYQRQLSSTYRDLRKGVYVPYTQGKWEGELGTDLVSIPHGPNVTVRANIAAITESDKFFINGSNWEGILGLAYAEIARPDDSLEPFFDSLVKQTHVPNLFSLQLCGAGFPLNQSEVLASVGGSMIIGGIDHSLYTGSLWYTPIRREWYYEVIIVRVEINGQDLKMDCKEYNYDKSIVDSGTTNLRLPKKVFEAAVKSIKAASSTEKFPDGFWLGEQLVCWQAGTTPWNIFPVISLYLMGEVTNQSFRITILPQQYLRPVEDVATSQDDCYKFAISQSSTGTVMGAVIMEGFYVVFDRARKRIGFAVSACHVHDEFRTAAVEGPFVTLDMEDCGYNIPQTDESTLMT

human BACE1 (rhBACE1) [2] = biological target: T1, human BACE1 (rhBACE1); assay: BACE1 fluorescence polarization (FP) competition binding assay with 5-TAMRA-BACE020 probe; conditions: for IC50: competition with 3 nM 5-TAMRA-BACE020, 12 nM rhBACE1, pH 4.4
Experimental: BACE1 Fluorescence Polarization Competition Binding Assay.
BACE1 binding assays were carried out in a final volume of 10 μL per well in black 384-well microplates (Proxiplate-Plus; Perkin Elmer, Waltham, Mass.). A standard binding reaction, initiated by the addition of 5 μL 2× enzyme to 2.5 μL of 4× binding probe and […] of 4× inhibitor, contained 12 nM rhBACE1, 3 nM 5-TAMRA-[…] (SEQ ID NO: 16) (5-TAMRA-BACE020), 50 mM NaOAc, pH 4.4 with 0.1% CHAPS. The reaction was permitted to proceed towards equilibrium for 2 h at ambient temperature prior to fluorescence polarization measurement using Envision (Perkin Elmer). The parallel and perpendicular fluorescent emissions measured in each well at 595 nm (excitation 531 nm polarized light) were used to determine the milli-polarization level (mP) using the following formula: mP=1000*(S-G*P)/(S+G*P) where S=parallel emission, P=perpendicular emission and G=0.65. The mP value in each well was plotted as a function of inhibitor concentration and the 50% inhibition (IC50) values were determined using a nonlinear least squares fit of the data to a four parameter equation using Prism 5.0 software (GraphPad Software, San Diego, Calif.). 5-TAMRA-labeled BACE020 was purchased from American Peptide Company, Inc (Sunnyvale, Calif.) and solubilized in DMSO to 100 mM for storage.
The affinities of BACE1 peptide ligands were measured using the abovementioned competition binding FP assay for determining IC50 values with serially diluted peptides. A Caliper assay was used to measure the inhibition of BACE1 enzymatic activity by peptide ligands. […] Furthermore, the IC50 values measured by the Caliper assay for peptides BACE017-021 and BACE025-028 are consistent with those measured by the HTRF assay.
Target sequence in this assay (P56817 46-501): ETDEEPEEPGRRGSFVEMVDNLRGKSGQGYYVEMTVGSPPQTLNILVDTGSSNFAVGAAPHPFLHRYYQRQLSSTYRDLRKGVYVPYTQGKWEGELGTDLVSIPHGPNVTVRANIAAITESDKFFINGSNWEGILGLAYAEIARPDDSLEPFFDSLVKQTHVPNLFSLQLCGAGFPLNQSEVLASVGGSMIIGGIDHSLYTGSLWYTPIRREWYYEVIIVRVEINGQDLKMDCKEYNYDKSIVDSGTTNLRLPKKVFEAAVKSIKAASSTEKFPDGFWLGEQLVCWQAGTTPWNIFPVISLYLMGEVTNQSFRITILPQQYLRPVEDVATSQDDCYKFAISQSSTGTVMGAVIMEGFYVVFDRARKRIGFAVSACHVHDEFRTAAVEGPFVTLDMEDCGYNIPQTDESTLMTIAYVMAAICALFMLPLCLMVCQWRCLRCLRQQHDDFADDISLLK

IC50 (human BACE1 (rhBACE1) [1]) | IC50 (human BACE1 (rhBACE1) [2]) | weakening of inhibitory activity relative to BACE020 (human BACE1 (rhBACE1) [1]; Caliper activity assay) | weakening of affinity relative to BACE020 (human BACE1 (rhBACE1) [2]; FP binding assay) | Molecule
7 ± 4 nM | 12 ± 3 nM |  |  | CC[C@H](C)[C@@H]1NC(=O)CNC(=O)[C@H](CC(C)C)NC(=O)[C@H](CC(C)C)NC(=O)[C@H](CCCNC(=N)N)NC(=O)[C@@H](NC(=O)[C@H](Cc2ccc(O)cc2)NC(=O)[C@H](CCSC)NC(=O)[C@H](CO)NC(=O)[C@H](CCC(=O)O)NC(=O)[C@H](CCC(=O)O)NC(=O)[C@H](CC(N)=O)NC(C)=O)CSSC[C@@H](C(=O)N[C@@H](C)C(N)=O)NC(=O)CNC1=O [BACE054] (Ac-NEESMYCRLLGIGCA-NH2; disulfide 7-14)
13 ± 2 nM |  |  |  | CC[C@H](C)[C@@H]1NC(=O)CNC(=O)[C@H](CC(C)C)NC(=O)[C@H](CC(C)C)NC(=O)[C@H](CCCNC(=N)N)NC(=O)[C@@H](NC(=O)[C@H](Cc2ccc(O)cc2)NC(=O)[C@H](CCSC)NC(=O)[C@H](CO)NC(=O)[C@H](CCC(=O)O)NC(=O)[C@H](C)NC(=O)[C@H](CC(N)=O)NC(C)=O)CSSC[C@@H](C(=O)NCC(N)=O)NC(=O)CNC1=O [BACE043] (Ac-NAESMYCRLLGIGCG-NH2; disulfide 7-14)
 | > 10000 nM |  |  | CC[C@H](C)[C@@H]1NC(=O)CNC(=O)[C@H](CC(C)C)NC(=O)[C@H](CC(C)C)NC(=O)[C@H](CCCNC(=N)N)NC(=O)[C@@H](NC(=O)[C@H](Cc2ccc(O)cc2)NC(C)=O)CSSC[C@@H](C(=O)NCC(N)=O)NC(=O)CNC1=O [BACE033] (Ac-YCRLLGIGCG-NH2; disulfide 2-9)
 | > 10000 nM |  |  | CC[C@H](C)[C@@H]1NC(=O)CNC(=O)[C@H](CC(C)C)NC(=O)[C@H](CC(C)C)NC(=O)[C@H](CCCNC(=N)N)NC(=O)[C@@H](NC(C)=O)CSSC[C@@H](C(=O)NCC(N)=O)NC(=O)CNC1=O [BACE034] (Ac-CRLLGIGCG-NH2; disulfide 1-8)
13 ± 8 nM | 12 nM |  |  | CC[C@H](C)[C@@H]1NC(=O)CNC(=O)[C@H](CC(C)C)NC(=O)[C@H](CC(C)C)NC(=O)[C@H](CCCNC(=N)N)NC(=O)[C@@H](NC(=O)[C@H](Cc2ccc(O)cc2)NC(=O)[C@H](CCSC)NC(=O)[C@H](CO)NC(=O)[C@H](CCC(=O)O)NC(=O)[C@H](CCC(=O)O)NC(C)=O)CSSC[C@@H](C(=O)NCC(N)=O)NC(=O)CNC1=O [BACE029] (Ac-EESMYCRLLGIGCG-NH2; disulfide 6-13)
3570 ± 3650 nM |  |  |  | CC[C@H](C)[C@@H]1NC(=O)CNC(=O)[C@H](CC(C)C)NC(=O)[C@H](CC(C)C)NC(=O)[C@H](CCCNC(=N)N)NC(=O)[C@@H](NC(=O)[C@H](Cc2ccc(O)cc2)NC(=O)[C@H](CCSC)NC(=O)[C@H](Cc2c[nH]cn2)NC(=O)[C@H](CCC(=O)O)NC(=O)[C@H](CCC(=O)O)NC(=O)[C@H](CC(N)=O)NC(C)=O)CSSC[C@@H](C(=O)NCC(N)=O)NC(=O)CNC1=O [BACE056] (Ac-NEEHMYCRLLGIGCG-NH2; disulfide 7-14)
12 ± 8 nM |  |  |  | CC[C@H](C)[C@@H]1NC(=O)CNC(=O)[C@H](CC(C)C)NC(=O)[C@H](CC(C)C)NC(=O)[C@H](CCCNC(=N)N)NC(=O)[C@@H](NC(=O)[C@H](Cc2ccc(O)cc2)NC(=O)[C@H](CCSC)NC(=O)[C@H](CO)NC(=O)[C@H](CCC(=O)O)NC(=O)[C@H](CCC(=O)O)NC(=O)[C@H](C)NC(C)=O)CSSC[C@@H](C(=O)NCC(N)=O)NC(=O)CNC1=O [BACE042] (Ac-AEESMYCRLLGIGCG-NH2; disulfide 7-14)
11 ± 2 nM |  |  |  | CC[C@H](C)[C@@H]1NC(=O)CNC(=O)[C@H](CC(C)C)NC(=O)[C@H](CC(C)C)NC(=O)[C@H](CCCNC(=N)N)NC(=O)[C@@H](NC(=O)[C@H](Cc2ccccc2)NC(=O)[C@H](CCSC)NC(=O)[C@H](CO)NC(=O)[C@H](CCC(=O)O)NC(=O)[C@H](CCC(=O)O)NC(=O)[C@H](CC(N)=O)NC(C)=O)CSSC[C@@H](C(=O)NCC(N)=O)NC(=O)CNC1=O [BACE055] (Ac-NEESMFCRLLGIGCG-NH2; disulfide 7-14)
18 ± 5 nM |  |  |  | CC[C@H](C)[C@@H]1NC(=O)[C@H](C)NC(=O)[C@H](CC(C)C)NC(=O)[C@H](CC(C)C)NC(=O)[C@H](CCCNC(=N)N)NC(=O)[C@@H](NC(=O)[C@H](Cc2ccc(O)cc2)NC(=O)[C@H](CCSC)NC(=O)[C@H](CO)NC(=O)[C@H](CCC(=O)O)NC(=O)[C@H](CCC(=O)O)NC(=O)[C@H](CC(N)=O)NC(C)=O)CSSC[C@@H](C(=O)NCC(N)=O)NC(=O)CNC1=O [BACE051] (Ac-NEESMYCRLLAIGCG-NH2; disulfide 7-14)
≥ 10000 nM | ≥ 10000 nM |  |  | Ac-KEESIYSRLMGLGSG-NH2 [BACE025]
> 10000 nM | > 10000 nM |  |  | CC[C@H](C)[C@@H]1NC(=O)CNC(=O)[C@H](CC(C)C)NC(=O)[C@H](CC(C)C)NC(=O)[C@H](C)NC(=O)[C@@H](NC(=O)[C@H](Cc2ccc(O)cc2)NC(=O)[C@H](CCSC)NC(=O)[C@H](CO)NC(=O)[C@H](CCC(=O)O)NC(=O)[C@H](CCC(=O)O)NC(=O)[C@H](CC(N)=O)NC(C)=O)CSSC[C@@H](C(=O)NCC(N)=O)NC(=O)CNC1=O [BACE048] (Ac-NEESMYCALLGIGCG-NH2; disulfide 7-14)
 | > 10000 nM |  |  | CC[C@H](C)[C@H](NC(=O)[C@H](Cc1ccccc1)NC(=O)[C@H](Cc1ccc(O)cc1)NC(=O)[C@@H]1CCCN1C(=O)[C@H](Cc1ccc(O)cc1)NC(C)=O)C(=O)N1CCC[C@H]1C(=O)N[C@@H](CC(C)C)C(N)=O [BMS4, reference compound]
> 10000 nM | > 10000 nM |  |  | Ac-PEESLYSRLLALGSG-NH2 [BACE028]
 |  | 3-4 fold | 3-4 fold | CC[C@H](C)[C@@H]1NC(=O)CNC(=O)[C@H](CC(C)C)NC(=O)[C@H](CC(C)C)NC(=O)[C@H](CCCNC(=N)N)NC(=O)[C@@H](NC(=O)[C@H](Cc2ccc(O)cc2)NC(=O)[C@H](CCSC)NC(=O)[C@H](CO)NC(C)=O)CSSC[C@@H](C(=O)NCC(N)=O)NC(=O)CNC1=O [BACE031] (Ac-SMYCRLLGIGCG-NH2; disulfide 4-11)
> 10000 nM | > 10000 nM |  |  | CC[C@H](C)[C@@H]1NC(=O)CNC(=O)[C@H](CC(C)C)NC(=O)[C@H](CC(C)C)NC(=O)[C@H](C)NC(=O)[C@@H](NC(=O)[C@H](Cc2ccc(O)cc2)NC(=O)[C@H](CCSC)NC(=O)[C@H](CO)NC(=O)[C@H](CCC(=O)O)NC(C)=O)CSSC[C@@H](C(=O)NCC(N)=O)NC(=O)CNC1=O [BACE057] (Ac-ESMYCALLGIGCG-NH2; disulfide 5-12)
7 nM |  |  |  | CC[C@H](C)[C@@H]1NC(=O)CNC(=O)[C@H](CC(C)C)NC(=O)[C@H](CC(C)C)NC(=O)[C@H](CCCNC(=N)N)NC(=O)[C@@H](NC(=O)[C@H](Cc2ccc(O)cc2)NC(=O)[C@H](CCSC)NC(=O)[C@H](CO)NC(=O)[C@H](CCC(=O)O)NC(=O)[C@H](CCC(=O)O)NC(=O)[C@H](CC(N)=O)NC(C)=O)CSSC[C@@H](C(=O)NCC(N)=O)NC(=O)[C@H](C)NC1=O [BACE053] (Ac-NEESMYCRLLGIACG-NH2; disulfide 7-14)
 | > 10000 nM |  |  | CC[C@H](C)[C@@H]1NC(=O)CNC(=O)[C@H](CC(C)C)NC(=O)[C@H](CC(C)C)NC(=O)[C@H](CCCNC(=N)N)NC(=O)[C@@H](NC(=O)[C@H](Cc2ccc(O)cc2)NC(=O)[C@H](CCSC)NC(C)=O)CSSC[C@@H](C(=O)NCC(N)=O)NC(=O)CNC1=O [BACE032] (Ac-MYCRLLGIGCG-NH2; disulfide 3-10)
